Laboratory results: EP3294317B1, “ENHANCED ANTIBIOTIC COMPOSITION” (Universitat Autònoma de Barcelona, priority 2015, dated 2016)

How the values were obtained:
[1] = test system: Pseudomonas aeruginosa PAO1; assay: Colistin broth microdilution MIC with potentiator compounds (Example 1); format: cell-based; settings: P. aeruginosa PAO1; MIC in the presence of 1.0% DMSO / MIC in the presence of 0.1 mM potentiator compound and 1.0% DMSO; positive = increased, negative = decreased susceptibility, 1 = no effect
[2] = test system: Acinetobacter baumannii ATCC 15308; assay: as above; format: cell-based; settings: A. baumannii ATCC 15308; MIC in the presence of 1.0% DMSO / MIC in the presence of 0.1 mM potentiator compound and 1.0% DMSO; positive = increased, negative = decreased susceptibility, 1 = no effect
[3] = test system: A. baumannii 6799; assay: Colistin broth microdilution MIC with potentiator compounds, resistant clinical isolates (Example 3); format: cell-based, Acinetobacter baumannii; settings: MIC in the presence of 1.0% DMSO / MIC in the presence of 0.1 mM compound and 1.0% DMSO, positive = increased susceptibility, 1 = no effect
Experimental: (§1) The potentiator effect of the compound of the invention and other compounds disclosed herein was tested using colistin sulfate as antibiotic and in combination with the enhancer compounds in front of resistant clinical isolates.
(§2) Tests were performed to determine the potentiator effect of the compound of the invention and other compounds disclosed herein with multidrug-resistant S. maltophilia and A. baumannii clinical strains as shown in Table 5: TABLE 5
(§3) For this experiment the potentiator compound was added to a colistin broth microdilution assay at a final concentration of 0.1mM. MICs were determined as described in the Example 1.
(§4) Colistin minimal inhibitory concentration (MIC), expressed in µg/mL, and the fold increase in bacterial susceptibility to colistin when combined with the potentiator compound (expressed as MIC in the presence of 1.0% DMSO / MIC in the presence of 0.1 mM of each potentiator compound and 1.0% DMSO) are shown in Table 6: […]

[4] = test system: A. baumannii 6963; assay: as above; format: cell-based, Acinetobacter baumannii; settings: MIC in the presence of 1.0% DMSO / MIC in the presence of 0.1 mM compound and 1.0% DMSO, positive = increased susceptibility, 1 = no effect
Experimental: as §1, §2, §3, §4

[5] = test system: A. baumannii 6799; assay: Broth microdilution MIC of other antibiotics with potentiator compounds, clinical isolates (Example 4); format: cell-based, Acinetobacter baumannii; settings: for Fold increase in bacterial susceptibility to TMP/SMX: Trimethoprim:sulfamethoxazole 1:19, MIC in 1.0% DMSO / MIC with 0.1 mM compound and 1.0% DMSO
Experimental: (§5) Following the procedure of Example 3, ciprofloxacin, amikacin, levofloxacin, imipenem and the combination trimethoprim/sulfamethoxasole (1:19) were tested. All were purchased from Sigma-Aldrich Co.
(§6) Minimal inhibitory concentration (MIC) of the antibiotic or the test combinations were determined by the broth microdilution method.
(§7) Antibiotic stock solutions were prepared according to CLSI recommendations and sterilizing by passage through 0.20 µm filters.
(§8) Antimicrobial susceptibility testing of these isolates was performed using the broth microdilution (BMD) method, according to CLSI guidelines.
(§9) The fold increase in bacterial susceptibility to antibiotics when combined with the potentiator compound (expressed as MIC in the presence of 1.0% DMSO / MIC in the presence of 0.1 mM of each potentiator compound and 1.0% DMSO) are shown in Table 7: […]

[6] = test system: A. baumannii 6963; assay: as above; format: cell-based, Acinetobacter baumannii; settings: any of ciprofloxacin, amikacin, levofloxacin, imipenem, TMP/SMX (1:19), 0.1 mM compound, 1.0% DMSO, 'none' = no antibiotic potentiated
Experimental: as §5, §6, §7, §8, §9

[7] = test system: Escherichia coli ATCC 25922; assay: Colistin broth microdilution MIC with potentiator compounds (Example 1); format: cell-based; settings: E. coli ATCC 25922; MIC in the presence of 1.0% DMSO / MIC in the presence of 0.1 mM potentiator compound and 1.0% DMSO; positive = increased, negative = decreased susceptibility, 1 = no effect
[8] = test system: P. aeruginosa ATCC 27853; assay: Broth microdilution MIC of other antibiotics with potentiator compounds (Example 2); format: cell-based, Pseudomonas aeruginosa; settings: for Fold increase in bacterial susceptibility to antibiotic indicated: any of ciprofloxacin, amikacin, levofloxacin, tigecycline, imipenem, TMP/SMX (1:19), 0.1 mM potentiator, 1.0% DMSO, 'none' = no antibiotic potentiated
Experimental: (§10) Following the procedure of Example 1, ciprofloxacin, amikacin, levofloxacin, tigecycline, imipenem and the combination trimethoprim/sulfamethoxasole (1:19) were tested. All were purchased from Sigma-Aldrich Co.
as §6, §7, §8
(§11) The fold increase in bacterial susceptibility to antibiotics when combined with the potentiator compound (expressed as MIC in the presence of 1.0% DMSO / MIC in the presence of 0.1 mM of each potentiator compound and 1.0% DMSO) are shown in Table 4: […]

[9] = test system: A. baumannii ATCC 15308; assay: as above; format: cell-based, Acinetobacter baumannii; settings: for Fold increase in bacterial susceptibility to TMP/SMX: Trimethoprim:sulfamethoxazole 1:19, MIC in 1.0% DMSO / MIC with 0.1 mM potentiator compound and 1.0% DMSO
Experimental: as §10, §6, §7, §8, §11

[10] = test system: Enterobacter aerogenes ATCC 13048; assay: Colistin broth microdilution MIC with potentiator compounds (Example 1); format: cell-based; settings: E. aerogenes ATCC 13048; MIC in the presence of 1.0% DMSO / MIC in the presence of 0.1 mM potentiator compound and 1.0% DMSO; positive = increased, negative = decreased susceptibility, 1 = no effect
[11] = test system: S. maltophilia 257; assay: Colistin broth microdilution MIC with potentiator compounds, resistant clinical isolates (Example 3); format: cell-based, Stenotrophomonas maltophilia; settings: MIC in the presence of 1.0% DMSO / MIC in the presence of 0.1 mM compound and 1.0% DMSO, positive = increased susceptibility, 1 = no effect
Experimental: as §1, §2, §3, §4

[12] = test system: S. maltophilia M30; assay: as above; format: cell-based, Stenotrophomonas maltophilia; settings: MIC in the presence of 1.0% DMSO / MIC in the presence of 0.1 mM compound and 1.0% DMSO, positive = increased susceptibility, 1 = no effect
Experimental: as §1, §2, §3, §4

[13] = test system: S. maltophilia ATCC 13637; assay: Broth microdilution MIC of other antibiotics with potentiator compounds (Example 2); format: cell-based, Stenotrophomonas maltophilia
Experimental: as §10, §6, §7, §8, §11

[14] = test system: S. maltophilia 257; assay: Broth microdilution MIC of other antibiotics with potentiator compounds, clinical isolates (Example 4); format: cell-based, Stenotrophomonas maltophilia; settings: any of ciprofloxacin, amikacin, levofloxacin, imipenem, TMP/SMX (1:19), 0.1 mM compound, 1.0% DMSO, 'none' = no antibiotic potentiated
Experimental: as §5, §6, §7, §8, §9

[15] = test system: Escherichia coli ATCC 9637; assay: Colistin broth microdilution MIC with potentiator compounds (Example 1); format: cell-based; settings: E. coli ATCC 9637; MIC in the presence of 1.0% DMSO / MIC in the presence of 0.1 mM potentiator compound and 1.0% DMSO; positive = increased, negative = decreased susceptibility, 1 = no effect
[16] = test system: Pseudomonas aeruginosa ATCC 27853; assay: as above; format: cell-based; settings: P. aeruginosa ATCC 27853; MIC in the presence of 1.0% DMSO / MIC in the presence of 0.1 mM potentiator compound and 1.0% DMSO; positive = increased, negative = decreased susceptibility, 1 = no effect
[17] = test system: Stenotrophomonas maltophilia ATCC 13637; assay: as above; format: cell-based; settings: S. maltophilia ATCC 13637; MIC in the presence of 1.0% DMSO / MIC in the presence of 0.1 mM potentiator compound and 1.0% DMSO; positive = increased, negative = decreased susceptibility, 1 = no effect
[18] = test system: Salmonella enterica subsp. enterica ATCC 14028; assay: as above; format: cell-based; settings: S. enterica ATCC 14028; MIC in the presence of 1.0% DMSO / MIC in the presence of 0.1 mM potentiator compound and 1.0% DMSO; positive = increased, negative = decreased susceptibility, 1 = no effect
[19] = MIC in 1.0% DMSO / MIC with 0.1 mM potentiator compound and 1.0% DMSO
[20] = any of ciprofloxacin, amikacin, levofloxacin, tigecycline, imipenem, TMP/SMX (1:19), 0.1 mM potentiator, 1.0% DMSO, 'none' = no antibiotic potentiated

Row | Compound | Fold increase in bacterial susceptibility to colistin [1] | Fold increase in bacterial susceptibility to colistin [2] | Fold increase in bacterial susceptibility to colistin [3] | Fold increase in bacterial susceptibility to colistin [4] | Fold increase in bacterial susceptibility to TMP/SMX [5] | Fold increase in bacterial susceptibility to antibiotic indicated [6] | Fold increase in bacterial susceptibility to colistin [7] | Fold increase in bacterial susceptibility to TMP/SMX [9] | Fold increase in bacterial susceptibility to colistin [10] | Fold increase in bacterial susceptibility to colistin [11] | Fold increase in bacterial susceptibility to colistin [12] | Fold increase in bacterial susceptibility to Tigecycline [13, 19] | Fold increase in bacterial susceptibility to antibiotic indicated [14] | Fold increase in bacterial susceptibility to colistin [15] | Fold increase in bacterial susceptibility to colistin [16] | Fold increase in bacterial susceptibility to colistin [17] | Fold increase in bacterial susceptibility to colistin [18] | Fold increase in bacterial susceptibility to antibiotic indicated [8] | other results
1 | O=C(CCCN1C(=O)c2cccc3cccc(c23)C1=O)N1CCN(c2ccccc2O)CC1 [IIA, 2-[4-[4-(2-hydroxyphenyl)piperazin-1-yl]-4-oxobutyl]benzo[de]isoquinoline-1,3-dione] | 1 fold | +4 fold | +2 fold | +2 fold | Amikacin (2) TMP/SMX (2) fold | none | 1 fold | Amikacin (2) TMP/SMX (2) fold | 1 fold | 1 fold | +8 fold | Tigecycline (2) fold | none | +2 fold | -2 fold | +4 fold | +2 fold | – | Fold increase in bacterial susceptibility to Amikacin ([5]; MIC in 1.0% DMSO / MIC with 0.1 mM compound and 1.0% DMSO): Amikacin (2) TMP/SMX (2) fold; Fold increase in bacterial susceptibility to Imipenem [8, 19]: Imipenem (2) fold; Fold increase in bacterial susceptibility to Amikacin [9, 19]: Amikacin (2) TMP/SMX (2) fold
2 | CCOC(=O)c1cc2cc(C(=O)N3CCN(Cc4cccc(C(F)(F)F)c4)CC3)ccc2[nH]1 [IIB, ethyl 5-[4-[[3-(trifluoromethyl)phenyl]methyl]piperazine-1-carbonyl]-1 H-indole-2-carboxylate] | +2 fold | >8 fold | +2 fold | +2 fold | TMP/SMX (2) fold | none | 1 fold | TMP/SMX (2) fold | 1 fold | +4 fold | +16 fold | – | none | +2 fold | 1 fold | +4 fold | +4 fold | none | Fold increase in bacterial susceptibility to antibiotic indicated [13, 20]: none
3 | O=C(NCC(=O)N1CCN(c2cccc(Cl)c2)CC1)c1cccc(NC(=O)c2cccnc2)c1 [IIC, N-[3-[[2-[4-(3-chlorophenyl)piperazin-1-yl]-2-oxoethyl]carbamoyl]-phenyl]pyridine-3-carboxamide] | 1 fold | +4 fold | +2 fold | +2 fold | – | – | 1 fold | – | 1 fold | 1 fold | +16 fold | – | – | 1 fold | 1 fold | +4 fold | 1 fold | – | –
4 | N#Cc1cccc(CN2CCC(c3cnn(Cc4cccc(C#N)c4)c3)CC2)c1 [IID, 3-[[4-[1-[(3-cyanophenyl)methyl]pyrazol-4-yl]piperidin-1-yl]methyl]-benzonitrile] | 1 fold | +4 fold | 1 fold | +4 fold | – | – | 1 fold | – | 1 fold | 1 fold | +16 fold | Ciprofloxacin (2) Tigecycline (2) fold | – | 1 fold | 1 fold | +8 fold | 1 fold | none | Fold increase in bacterial susceptibility to antibiotic indicated [9, 20]: none; Fold increase in bacterial susceptibility to Ciprofloxacin [13, 19]: Ciprofloxacin (2) Tigecycline (2) fold
